Key:
Assay type in all cases: cell-based, human
[1] = tested on: HBEC; assay: Nocodazole treatment and recovery of HBEC, immunofluorescence microscopy
Description: (§1) HBEC were grown to 70% confluency on 1 well-chambered coverglass (Lab-Tek II, Nunc, #1.5). For all experiments except the localization of LTB4DH and Hs.516830 to the centriole in D51 cells, which required a stringent wash prior to fixation, standard fixation conditions were used. For standard conditions, culture media was removed and the cells were fixed directly in PBS containing 3% formaldehyde for 20 minutes. For stringent conditions, cells were rinsed quickly in PHEM buffer (60 mM Pipes, 25 mM Hepes, 10 mM EGTA, 1 mM Mg-acetate, pH 6.9), lysed for 2 minutes in PHEM containing 0.5% Triton X100, and fixed in PHEM containing 3% formaldehyde for 20 minutes. All steps subsequent to cell fixation were identical. Cells were incubated with PBS containing 50 mM NH4Cl for 10 minutes, permeabilized in PBS containing 0.1% Triton X-100 at RT for 3 minutes, and blocked one hour in block buffer (PBS containing 0.75% BSA [GIBCO]). Primary antisera was diluted in block buffer to a final concentration of 1-10 ug/ml, depending on the antibody, and incubated with cells for 1.5 hours at room temperature. Conjugated secondary antibodies (diluted in block buffer to 2 ug/ml) were incubated for 45 minutes at room temperature. Phalloidin conjugated to rhodamine (Molecular Probes, 1 unit/ml final) was included during secondary antibody incubation where indicated in the figure legend. DNA was stained with 300 nM DAPI (Molecular Probes) in PBS for 5 minutes, and the cells were mounted in Prolong Antifade (Molecular Probes). Wide-field fluorescence microscopy (DeltaVision, Applied Precision) and subsequent deconvolution was used for all images that dealt with fixed cells. A 0.2-micron z-plane was used throughout. Three-dimensional rendering of stacked images was done on Volocity 2.0 software (Improvision).
(§2) Primary cell cultures of human bronchial epithelial cells (HBEC) were purchased commercially (Cambrex, no retinoic acid) from two male donors and grown in BEGM medium (Cambrex) according to specifications. […]

[2] = tested on: HBEC; assay: Paclitaxel treatment of HBEC, immunofluorescence microscopy
Description: as §1, §2

[3] = tested on: MCF10A breast epithelial cells; assay: Paclitaxel treatment of MCF10A, immunofluorescence microscopy; conditions: 1 uM paclitaxel, 9 hours

Compound: COC(=O)Nc1nc2ccc(C(=O)c3cccs3)cc2[nH]1 [nocodazole]
- presence of ribbon-like structure ([1]; nocodazole 20 minute exposure): uncharacteristically absent
- effect on cytoplasmic microtubules ([1]; nocodazole 20 minute exposure, alpha-tubulin antisera): sufficient to eliminate cytoplasmic MT
- effect on actin fibers ([1]; nocodazole treatment then 20 minute recovery, phalloidin-rhodamine): unaffected

Compound: CC(=O)O[C@H]1C(=O)[C@@]2(C)[C@H]([C@H](OC(=O)c3ccccc3)[C@]3(O)C[C@H](OC(=O)[C@H](O)[C@@H](NC(=O)c4ccccc4)c4ccccc4)C(C)=C1C3(C)C)[C@]1(OC(C)=O)CO[C@@H]1C[C@@H]2O [paclitaxel]
- formation of ribbon-like structure ([2]; HBEC treated with paclitaxel versus absence of paclitaxel, antisera to OKL38, LTB4DH, RLA1, TRIM29): promotes the formation of a ribbon-like structure in close proximity to mitotic DNA
- increase in the number of mitotic figures ([2]; HBEC, 1 uM paclitaxel, 9 hours, DAPI stain of fixed cells): 10 fold
- mitotic spindle integrity based on microtubule localization ([2]; HBEC, 1 uM paclitaxel, 9 hours, alpha-tubulin immunofluorescence): no indication of an intact mitotic spindle in any cell
- localization of ribbon-like structure [3]: localization of a ribbon-like structure in the vicinity of condensed, mitotic DNA

From patent publication US20070298444A1, “Methods and Compositions for Use in Evaluating and Treating Neoplastic Disease Conditions” (priority 2004, published 2007)
